Data as given in ChEMBL document CHEMBL1201862, “PubChem BioAssay data set” (2004).
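Test compounds were applied to cells in 96-well plates for 48 hours at 5 doses. At the GI50, growth is halved.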 The source made the active and inactive calls. Rule as the data show it: active = GI50 up to about 1.1 µM and inactive = higher.

What was measured:
Test in all cases: NCI tumour cell line growth inhibition, 48 h
[1] = tested on: CCRF-CEM
[2] = tested on: DU-145
[3] = tested on: HCC 2998
[4] = tested on: HCT-15
[5] = tested on: HL-60
[6] = tested on: HOP-62
[7] = tested on: MDA-MB-435
[8] = tested on: MOLT-4
[9] = tested on: Malme-3M
[10] = tested on: NCI-H226
[11] = tested on: NCI-H460
[12] = tested on: NCI/ADR-RES
[13] = tested on: OVCAR-5
[14] = tested on: SF-268
[15] = tested on: SF-295
[16] = tested on: T47D
[17] = tested on: UACC-257
[18] = tested on: UACC-62
[19] = tested on: UO-31
[20] = tested on: SK-MEL-2

SMILES	GI50 [1]	GI50 [2]	GI50 [3]	GI50 [4]	GI50 [5]	GI50 [6]	GI50 [7]	GI50 [8]	GI50 [9]	GI50 [10]	GI50 [11]	GI50 [12]	GI50 [13]	GI50 [14]	GI50 [15]	GI50 [16]	GI50 [17]	GI50 [18]	GI50 [19]	GI50 [20]
C1=C(c2ccccc2)C(N2CCOCC2)Oc2ccccc21 (stereo not drawn)	> 100 µM (inactive)	> 100 µM (inactive)	> 100 µM (inactive)	> 100 µM	42.7 µM (inactive)	> 100 µM (inactive)	> 100 µM (inactive)	81.7 µM (inactive)	> 100 µM (inactive)	> 100 µM (inactive)	> 100 µM (inactive)	79.8 µM (inactive)	> 100 µM (inactive)	> 100 µM (inactive)	> 100 µM (inactive)	> 100 µM (inactive)	> 100 µM (inactive)	95.3 µM (inactive)	87.7 µM (inactive)	–
Cc1ccc(C)c2c1C/C(=C\c1ccccc1C(=O)O)C2=O	55.6 µM (inactive)	97.3 µM (inactive)	> 100 µM (inactive)	77.4 µM	40.9 µM (inactive)	> 100 µM (inactive)	67.5 µM (inactive)	86.9 µM (inactive)	> 100 µM (inactive)	20.8 µM (inactive)	> 100 µM (inactive)	> 100 µM (inactive)	> 100 µM (inactive)	89.3 µM (inactive)	> 100 µM (inactive)	> 100 µM (inactive)	> 100 µM (inactive)	> 100 µM (inactive)	> 100 µM (inactive)	–
CO[C@H]1C[C@H](O[C@H]2CC[C@]3(C=O)[C@H]4CC[C@]5(C)[C@@H](C6=CC(=O)OC6)CC[C@]5(O)[C@@H]4CC[C@]3(O)C2)O[C@H](C)[C@H]1O [CYMARIN]	–	0.115 µM (active)	2.08 µM (inactive)	0.192 µM	0.118 µM (active)	0.114 µM (active)	0.344 µM (active)	0.0883 µM (active)	0.225 µM (active)	0.54 µM (active)	0.112 µM (active)	0.257 µM (active)	0.478 µM (active)	0.126 µM (active)	0.133 µM (active)	0.384 µM (active)	0.37 µM (active)	0.43 µM (active)	0.308 µM (active)	0.397 µM (active)
N#CCC1COc2ccccc2O1 (stereo not drawn)	> 10 µM (inactive)	> 10 µM (inactive)	> 10 µM (inactive)	> 10 µM	> 10 µM (inactive)	> 10 µM (inactive)	> 10 µM (inactive)	> 10 µM (inactive)	> 10 µM (inactive)	–	–	> 10 µM (inactive)	> 10 µM (inactive)	> 10 µM (inactive)	> 10 µM (inactive)	> 10 µM (inactive)	> 10 µM (inactive)	> 10 µM (inactive)	–	–
COc1ccc(-c2oc3cc(O)cc(O)c3c(=O)c2OC)cc1 [ERMANIN]	22.1 µM (inactive)	27.2 µM (inactive)	26 µM (inactive)	23.4 µM	14.1 µM (inactive)	26.6 µM (inactive)	17.8 µM (inactive)	20.9 µM (inactive)	38.8 µM (inactive)	–	25.4 µM (inactive)	27.2 µM (inactive)	> 100 µM (inactive)	22.1 µM (inactive)	26.6 µM (inactive)	31 µM (inactive)	59.8 µM (inactive)	21.5 µM (inactive)	21.6 µM (inactive)	–
COC(=O)[C@@H]1CS(=O)(=O)C(C(C)C)N1C(C)=O (stereo partly drawn)	–	> 100 µM (inactive)	> 100 µM (inactive)	> 100 µM	7.19 µM (inactive)	> 100 µM (inactive)	> 100 µM (inactive)	–	> 100 µM (inactive)	> 100 µM (inactive)	> 100 µM (inactive)	> 100 µM (inactive)	> 100 µM (inactive)	> 100 µM (inactive)	> 100 µM (inactive)	> 100 µM (inactive)	> 100 µM (inactive)	> 100 µM (inactive)	> 100 µM (inactive)	> 100 µM (inactive)
CC1=NN(c2cccc(S(=O)(=O)O)c2)C2(C1)SCC(=O)N2c1nc2ccccc2s1 (stereo not drawn)	–	> 100 µM (inactive)	> 100 µM (inactive)	> 100 µM	91.2 µM (inactive)	> 100 µM (inactive)	> 100 µM (inactive)	> 100 µM (inactive)	> 100 µM (inactive)	> 100 µM (inactive)	> 100 µM (inactive)	> 100 µM (inactive)	> 100 µM (inactive)	> 100 µM (inactive)	> 100 µM (inactive)	> 100 µM (inactive)	> 100 µM (inactive)	> 100 µM (inactive)	> 100 µM (inactive)	> 100 µM (inactive)
